Counter-ions that a name gives are not always drawn.
Target: PARP-1 (poly[ADP-ribose] polymerase 1) enzyme (Homo sapiens (Human), UniProt P09874)
Experiment: PARP-1 (poly[ADP-ribose] polymerase 1) enzyme inhibitory ability, Trevigen assay kit
Assay type: biochemical
Conditions: for inhibition at 0.001 µM: 1 nM compound, read-out: PAR P-1 Inhibitory ability at 1 nM; for IC50: PARP-1 enzyme activity
Description: In order to evaluate the PARP-1 (poly[ADP-ribose] polymerase 1) enzyme inhibitory ability of the compounds according to the present invention, an experiment was conducted as follows.
Specifically, in order to evaluate the PARP-1 (poly[ADP-ribose] polymerase 1) enzyme inhibitory ability of the compounds of Examples 1 to 276 according to the present invention, the PARP-1 (poly[ADP-ribose] polymerase 1) activity was investigated in the following manner using an assay kit purchased from Trevigen, Inc. (Catalog number: 4677-096-K). 50 μL of 1×PARP buffer (provided by Trevigen's kit) was dispensed into a 96-well plate coated with histones per each well, and then rehydrated for 30 minutes. After removing the 1×PARP buffer present in the well, PARP-1 (poly[ADP-ribose] polymerase 1) enzyme (0.5 unit/well) and 1 μM concentration or various concentrations of the compounds of Example 1 to 276 were added at room temperature and reacted for 10 minutes. Thereafter, each well was treated with 25 μL of 1×PARP cocktail (biotinylated NAD, activated DNA, provided by Trevigen's kit), and then reacted at room temperature for 1 hour. After the reaction was completed, each well was washed twice with PBS (7.5 mM Na2HPO4, 2.5 mM NaH2PO4, 145 mM NaCl) containing 0.1% triton X-100, and washed twice with PBS. Then, 50 μL of strep-HRP (streptavidin-linked peroxidase) was added and reacted at room temperature for 1 hour, and then washed twice with PBS containing 0.1% triton X-100, and washed twice with PBS. After removing all PBS, 50 μL of TACS-sapphire, a substrate, was added, and reacted at room temperature for 15 minutes while blocking the light. After the reaction was terminated by treatment with 50 μL of 5% phosphoric acid to each well, the absorbance was measured at 450 nm using a microplate reader Victor3 from PerkinElmer, Inc. to quantify the value.

Sequence of PARP-1 (poly[ADP-ribose] polymerase 1) enzyme (P09874 whole entry): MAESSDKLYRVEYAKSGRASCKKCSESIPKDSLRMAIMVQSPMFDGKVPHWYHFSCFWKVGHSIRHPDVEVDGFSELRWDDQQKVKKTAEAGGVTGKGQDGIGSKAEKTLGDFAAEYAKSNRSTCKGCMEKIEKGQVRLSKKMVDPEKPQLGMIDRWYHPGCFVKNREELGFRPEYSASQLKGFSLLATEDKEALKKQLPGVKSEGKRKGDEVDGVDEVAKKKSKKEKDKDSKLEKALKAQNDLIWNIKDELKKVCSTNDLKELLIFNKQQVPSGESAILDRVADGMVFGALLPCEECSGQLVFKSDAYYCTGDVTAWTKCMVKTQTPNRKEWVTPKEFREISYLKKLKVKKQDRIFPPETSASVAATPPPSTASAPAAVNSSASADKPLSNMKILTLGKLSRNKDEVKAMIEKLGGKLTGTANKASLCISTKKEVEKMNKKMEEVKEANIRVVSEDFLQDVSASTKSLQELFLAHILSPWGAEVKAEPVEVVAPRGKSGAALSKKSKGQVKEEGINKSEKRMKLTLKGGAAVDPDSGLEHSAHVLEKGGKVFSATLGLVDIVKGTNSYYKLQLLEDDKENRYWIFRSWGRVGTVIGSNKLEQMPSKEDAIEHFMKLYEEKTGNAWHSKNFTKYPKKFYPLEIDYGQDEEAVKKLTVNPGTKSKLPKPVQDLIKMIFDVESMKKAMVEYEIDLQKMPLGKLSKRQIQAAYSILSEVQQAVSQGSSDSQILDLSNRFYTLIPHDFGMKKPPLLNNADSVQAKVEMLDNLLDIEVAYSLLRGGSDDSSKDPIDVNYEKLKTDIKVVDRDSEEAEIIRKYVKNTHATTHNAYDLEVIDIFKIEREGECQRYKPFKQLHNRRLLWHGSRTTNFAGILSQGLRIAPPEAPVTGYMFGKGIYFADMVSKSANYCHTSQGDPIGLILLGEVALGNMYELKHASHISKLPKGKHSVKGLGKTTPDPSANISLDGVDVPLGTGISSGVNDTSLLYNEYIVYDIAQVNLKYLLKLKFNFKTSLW

| inhibition at 0.001 µM | IC50 | Structure (SMILES) |
| --- | --- | --- |
| < 50% |  | N#Cc1cc(F)cc(N2CCN(C(=O)CCc3cc4ccc(F)cc4c(=O)[nH]3)CC2)c1 [Example 119, 3-fluoro-5-(4-(3-(7-fluoro-1-oxo-1,2-dihydroisoquinolin-3-yl)propanoyl)piperazin-1-yl)benzonitrile] |
| < 50% |  | O=C(CCc1cc2ccc(F)cc2c(=O)[nH]1)N1CC=C(c2ccc(F)cc2)CC1 [Example 104, 7-fluoro-3-(3-(4-(4-fluorophenyl)-3,6-dihydropyridin-1(2H)-yl)-3-oxopropyl)isoquinolin-1(2H)-one] |
| < 50% |  | O=C(CCc1cc2ccc(F)cc2c(=O)[nH]1)N1CC=C(c2ccc(F)cc2F)CC1 [Example 113, 3-(3-(4-(2,4-difluorophenyl)-3,6-dihydropyridin-1(2H)-yl)-3-oxopropyl)-7-fluoroisoquinolin-1(2H)-one] |
| < 50% |  | Cc1cc(F)cc2c(=O)[nH]c(CCC(=O)N3CCN(c4cc(F)ccc4C#N)CC3)cc12 [Example 157, 4-fluoro-2-(4-(3-(7-fluoro-5-methyl-1-oxo-1,2-dihydroisoquinolin-3-yl)propanoyl)piperazin-1-yl)benzonitrile] |
| < 50% |  | O=C(CCc1cc2cccc(F)c2c(=O)[nH]1)N1CCN(C(=O)C2CCC2)CC1 [Example 178, 3-(3-(4-(cyclobutanecarbonyl)piperazin-1-yl)-3-oxopropyl)-8-fluoroisoquinolin-1(2H)-one] |
| < 50% | 0.85 nM | Cc1cc(F)cc2c(=O)[nH]c(CCC(=O)N3CCN(c4ccc(C#N)cn4)CC3)cc12 [Example 152, 6-(4-(3-(7-fluoro-5-methyl-1-oxo-1,2-dihydroisoquinolin-3-yl)propanoyl)piperazin-1-yl)nicotinonitrile] |
| < 50% |  | Cc1ccc(F)c2c(=O)[nH]c(CCC(=O)N3CCN(C(=O)[C@@H](N)Cc4ccccc4)CC3)cc12 [Example 195, 3-(3-(4-(L-phenylalanyl)piperazin-1-yl)-3-oxopropyl)-8-fluoro-5-methylisoquinolin-1(2H)-one hydrochloride] |
| < 50% |  | N#Cc1ccc(NC2CCN(CCCc3cc4cccc(F)c4c(=O)[nH]3)CC2)cn1 [Example 248, 5-((1-(3-(8-fluoro-1-oxo-1,2-dihydroisoquinolin-3-yl)propyl)piperidin-4-yl)amino)picolinonitrile] |
| < 50% |  | O=C(CCc1cc2ccc(F)cc2c(=O)[nH]1)N1CC[C@H](c2ccc(F)cc2)C1 [Example 116, (R)-7-fluoro-3-(3-(3-(4-fluorophenyl)pyrrolidin-1-yl)-3-oxopropyl)isoquinolin-1(2H)-one] |
| < 50% |  | N#Cc1cc(F)ccc1N1CCN(C(=O)CCc2cc3ccc(F)cc3c(=O)[nH]2)CC1 [Example 110, 5-fluoro-2-(4-(3-(7-fluoro-1-oxo-1,2-dihydroisoquinolin-3-yl)propanoyl)piperazin-1-yl)benzonitrile] |
| < 50% |  | Cc1ccc(F)c2c(=O)[nH]c(CCC(=O)N3CCN(C(=O)[C@H](C)N)CC3)cc12 [Example 194, 3-(3-(4-(L-alanyl)piperazin-1-yl)-3-oxopropyl)-8-fluoro-5-methylisoquinolin-1(2H)-one hydrochloride] |
| < 50% | 1.38 nM | Cc1ccc(F)c2c(=O)[nH]c(CCC(=O)N3CCN(c4ccc(C#N)cc4F)CC3)cc12 [Example 128, 3-fluoro-4-(4-(3-(8-fluoro-5-methyl-1-oxo-1,2-dihydroisoquinolin-3-yl)propanoyl)piperazin-1-yl)benzonitrile] |

Further lines, the molecule ahead of its results:

| Structure (SMILES) | inhibition at 0.001 µM | IC50 |
| --- | --- | --- |
| Cc1ccc(F)c2c(=O)[nH]c(CCCN3CC=C(c4ccc([N+](=O)[O-])cc4F)CC3)cc12 [Example 56, 8-fluoro-3-(3-(4-(2-fluoro-4-nitrophenyl)-3,6-dihydropyridin-1(2H)-yl)propyl)-5-methylisoquinolin-1(2H)-one] | < 50% |  |
| Cc1ccc(F)c2c(=O)[nH]c(CCCN3CCN(c4ccc(C#N)cn4)CC3)cc12 [Example 22, 6-(4-(3-(8-fluoro-5-methyl-1-oxo-1,2-dihydroisoquinolin-3-yl)propyl)piperazin-1-yl)nicotinonitrile] | < 50% | 1.2 nM |
| N#Cc1ccc(N2CC3CCC(C2)N3CCCc2cc3ncccc3c(=O)[nH]2)nc1 [Example 232, 6-(8-(3-(5-oxo-5,6-dihydro-1,6-naphthyridin-7-yl)propyl)-3,8-diazabicyclo[3.2.1]octan-3-yl)nicotinonitrile] | < 50% |  |
| Cc1cc(F)cc2c(=O)[nH]c(CCCN3C4CCC3CN(c3ccc(C#N)cn3)C4)cc12 [Example 205, 6-(8-(3-(7-fluoro-5-methyl-1-oxo-1,2-dihydroisoquinolin-3-yl)propyl)-3,8-diazabicyclo[3.2.1]octan-3-yl)nicotinonitrile] | 50 to 80% |  |
| Cc1cc(F)cc2c(=O)[nH]c(CCCN3CC=C(c4ccc(C#N)cc4)CC3)cc12 [Example 58, 4-(1-(3-(7-fluoro-5-methyl-1-oxo-1,2-dihydroisoquinolin-3-yl)propyl)-1,2,3,6-tetrahydropyridin-4-yl)benzonitrile] | 50 to 80% | 1.76 nM |
| Cc1cc(F)cc2c(=O)[nH]c(CCCN3CC=C(c4ccc(C(F)(F)F)cc4)CC3)cc12 [Example 64, 7-fluoro-5-methyl-3-(3-(4-(4-(trifluoromethyl)phenyl)-3,6-dihydropyridin-1(2H)-yl)propyl)isoquinolin-1(2H)-one] | < 50% |  |
| Cc1cc(F)cc2c(=O)[nH]c(CCCN3CCN(c4ccc(C#N)nc4)CC3)cc12 [Example 35, 5-(4-(3-(7-fluoro-5-methyl-1-oxo-1,2-dihydroisoquinolin-3-yl)propyl)piperazin-1-yl)picolinonitrile] | < 50% |  |
| N#Cc1ccc(C2=CCN(CCCc3cc4ccc(F)cc4c(=O)[nH]3)CC2)cc1F [Example 52, 2-fluoro-4-(1-(3-(7-fluoro-1-oxo-1,2-dihydroisoquinolin-3-yl)propyl)-1,2,3,6-tetrahydropyridin-4-yl)benzonitrile] | < 50% |  |
| Cc1cc(F)cc2c(=O)[nH]c(CCCN3CC=C(c4ccc(F)cc4)CC3)cc12 [Example 59, 7-fluoro-3-(3-(4-(4-fluorophenyl)-3,6-dihydropyridin-1(2H)-yl)propyl)-5-methylisoquinolin-1(2H)-one] | < 50% |  |
| O=c1[nH]c(CCCN2CC=C(c3ccnc(F)c3)CC2)cc2ncccc12 [Example 237, 7-(3-(2′-fluoro-3,6-dihydro-[4,4′-bipyridine]-1(2H)-yl)propyl)-1,6-naphthyridin-5(6H)-one] | < 50% |  |
| N#Cc1ccc(N2CCN(CCCc3cc4cccc(F)c4c(=O)[nH]3)CC2)cc1F [Example 5, 2-fluoro-4-(4-(3-(8-fluoro-1-oxo-1,2-dihydroisoquinolin-3-yl)propyl)piperazin-1-yl)benzonitrile] | < 50% |  |
| O=C(CCc1cc2cccc(F)c2c(=O)[nH]1)N1CC=C(c2ccc(F)cn2)CC1 [Example 86] | < 50% |  |
| N#Cc1ccc(N2CCN(C(=O)CCc3cc4ccc(F)cc4c(=O)[nH]3)CC2)c(F)c1 [Example 100, 3-fluoro-4-(4-(3-(7-fluoro-1-oxo-1,2-dihydroisoquinolin-3-yl)propanoyl)piperazin-1-yl)benzonitrile] | < 50% |  |

— patent US12459899B2, “Isoquinolinone derivatives, method for preparing the same, and pharmaceutical composition for preventing or treating poly(ADP-ribose) polymerase-1-related diseases, comprising the same as active ingredient” (DIGMBIO. INC., priority 2019, dated 2025)
